One data set deals with T1, CDK6/cyclin D1 (Homo sapiens, UniProt Q00534).
T1 construct: purchased Life Technologies
Description: CDK6/cyclin D1 Lance Ultra enzyme assay. The class given is biochemical. Conditions: 250 μM ATP, 180 minutes. The procedure:
(§1) The experimental materials included CDK2/cyclin A, CDK4/cyclin D1, CDK6/cyclin D1 (Life Technologies); ULight-labeled polypeptide substrates, i.e., ULight-4E-BP1 and ULight-MBP (PerkinElmer); the europium-labeled antibody against anti-myelin basic protein and europium-labeled rabbit antibody (PerkinElmer); and Envision® Multilabel Plate Reader (PerkinElmer) used for signal detection.
(§2) The compounds to be tested were diluted three times so as to be at ten gradually varied concentrations.
The dilutions of the compounds were dissolved in enzyme buffer, respectively. The components of the buffer included 50 mM hydroxyethylpiperazine ethanesulfonic acid solution (pH 7.5), 1 mM ethylenediaminetetraacetic acid, 10 mM magnesium chloride, 0.01% Brij-35, and 2 mM dithiothreitol. After the reaction started, the OptiPlate 384-well plate was sealed with top heat-sealing film TopSeal-A and incubated at room temperature for 180 minutes.
(§3) The stop buffer of the enzyme reaction was prepared by dissolving EDTA in a one-fold dilution of the assay buffer. The reaction was terminated at room temperature for 5 minutes. To each of the reaction systems of CDK2/cyclin A, CDK4/cyclin D1 and CDK6/cyclin D1 was added 5 μL assay mixture (provided with antibody the europium-labeled against anti-myelin basic protein and the europium-labeled rabbit antibody, respectively). They were incubated at room temperature for 60 minutes. The reaction signals were detected by the EnVision instrument according to the principle of time-resolved fluorescence resonance energy transfer.

Data set [1] can be described thus: Study of brain permeability after oral administration. The format is in vivo, SD rats. On the procedure: SD rats were used as the test animals.
Twelve healthy 7- to 9-week-old adult male SD rats were purchased from Shanghai Slack Laboratory Animal Co., Ltd. A proper amount of the test compound was weighed to prepare a 0.5% methylcellulose suspension at 1 mg/mL. The rats received a single oral dose of 10 mg/kg. 0.5 h, 2 h, 8 h, and 24 hours after the administration, 3 rats were respectively killed, and their whole blood and brain tissues were collected. The plasma was prepared by centrifuging the whole blood (3000 g, 15 minutes, 4° C.). The samples of brain homogenate were prepared by mixing the brain tissues with a mixture of methanol and a phosphate buffer (methanol:phosphate buffer=1:2) as homogenate at a ratio of 5:1. The drug concentration of each sample was determined by LC/MS/MS, and AUC was calculated to evaluate the exposure.

In the next data set the target is T2, CDK2/cyclin A (Homo sapiens, UniProt P24941).
T2 construct: purchased Life Technologies
Description: CDK2/cyclin A Lance Ultra enzyme assay. The format is biochemical. Conditions: 25 μM ATP, 60 minutes. On the procedure:
as §1, §2
The gradient dilutions of the compounds were dissolved in enzyme buffer, respectively. The components of the buffer included 50 mM hydroxyethylpiperazine ethanesulfonic acid solution (pH 7.5), 1 mM ethylenediaminetetraacetic acid, 10 mM magnesium chloride, 0.01% Brij-35, and 2 mM dithiothreitol. After the reaction started, the OptiPlate 384-well plate was sealed with top heat-sealing film TopSeal-A and incubated at room temperature for 60 minutes. • The Enzyme Reaction System of CDK4/Cyclin D1
as §3

Another data set relates to MDA-MB-436 cells. Description: MDA-MB-436 cell proliferation (CellTiter-Glo). The following applies: Homo sapiens. The class given is cell-based. The procedure:
RPMI 1640 medium, fetal bovine serum, penicillin/streptomycin were purchased from Promega (Madison, Wis.). The MCF-7 cell line and the MDA-MB-436 cell line were purchased from the European Collection of Authenticated Cell Cultures (ECACC). EnVision® Multilabel Plate Reader (PerkinElmer) was used.
(§4) The compounds to be tested were diluted three times using Bravo to the tenth concentration, i.e., diluted from 10 μM to 0.508 nM. A duplicate well test was performed. The medium was added to the middle plate in an amount of 49 μL per well. The gradient dilutions of the compounds were transferred in an amount of 1 μL per well to the middle plate at the corresponding positions, and the mixture was mixed and transferred to the cell plate in an amount of 5 μL per well. The cell plate was incubated in a carbon dioxide incubator for 6 days. Promega CellTiter-Glo reagent was added to the cell plate in an amount of 25 μL per well. The cell plate was incubated at room temperature for 10 minutes to stabilize the luminescence signal. EnVision® Multilabel Plate Reader (PerkinElmer) was used for signal detection.
The IC50 values were obtained by curve fitting using four parameters (obtained from the 205 mode in XLFIT5, iDBS). Table 1 provides the inhibitory activities of the compounds of the invention against the proliferation of MCF-7 cells and MDA-MB-436 cells.
Background: Cellular ATP, detected with luciferase, serves as a proxy for viable cell number.

The next data set concerns MCF-7 cells. Briefly: MCF-7 cell proliferation (CellTiter-Glo, 6 days). Conditions: for IC50: Homo sapiens, MCF7, proliferation, 6 days; for MCF-7/MDA-MB-436: ratio of the proliferation IC50 values. The class given is cell-based, human. On the procedure:
EnVision® Multilabel Plate Reader (PerkinElmer) was used.
MCF-7 cells were inoculated in a black 384-well plate by adding 45 μL of the cell suspension (containing 200 of MCF-7 cells) to each of the wells. The plate was incubated overnight in a carbon dioxide incubator.
as §4, with “A” for “The compounds to be tested were diluted three times using Bravo to the tenth concentration, i.e., diluted from 10 μM to 0.508 nM. A”

Data set [2] is described as follows: Caco-2 cell bi-directional permeability assessment. Conditions: human, Caco-2, pH 7.4. In general terms: Caco-2 cells form a polarised layer with tight junctions and transporters.
Description: (§5) The standard experimental conditions were as follows: • Test concentration: 2 μM (DMSO≤1%); • Number of replication: n=2; • Direction: bi-directional transportation, including two directions, i.e., A→B and B→A; • Incubation time: single time point, 2 hours; • Transport buffer: HBSS, pH 7.4; • Incubation conditions: 37° C., 5% CO2.
(§6) After the incubation, sample solutions taken from the dosing wells and the receiving wells were immediately mixed with a cold acetonitrile solution containing the internal standard. Concentrations of the test compounds in all samples (including the initial dosing solutions, the supernatants of the dosing wells and the receiving solutions) were determined by a LC/MS/MS method. The apparent permeability coefficients, the efflux ratios and other parameters were calculated.
In data set [3] the test system is Caco-2 monolayer cells. Briefly: Caco-2 cell bi-directional permeability assessment.
Description: as §5, §6
A further data set has as its target T3, CDK4/cyclin D1 (Homo sapiens, UniProt P11802).
T3 construct: purchased Life Technologies
Briefly: CDK4/cyclin D1 Lance Ultra enzyme assay. The class given is biochemical. The following applies: 350 μM ATP, 180 minutes. On the procedure:
as §1, §2
The dilutions of the compounds were dissolved in enzyme buffer, respectively. The components of the buffer included 50 mM hydroxyethylpiperazine ethanesulfonic acid solution (pH 7.5), 1 mM ethylenediaminetetraacetic acid, 10 mM magnesium chloride, 0.01% Brij-35, and 2 mM dithiothreitol. After the reaction started, the OptiPlate 384-well plate was sealed with top heat-sealing film TopSeal-A and incubated at room temperature for 180 minutes. • The Enzyme Reaction System of CDK6/Cyclin D1
as §3

Data set [4] concerns human breast cancer cell line MCF-7. The class given is in vivo. The procedure: The in vivo pharmacodynamic study was carried out in human-based tumor cell line-derived xenografted (CDX) BALB/c nude mice, in which were subcutaneously implanted human breast cancer cell line MCF-7.
. All the cages, matts and water were disinfected before use. All the animals had free access to a standard certified commercial laboratory diet. A total of 100 mice were purchased from Shanghai BK Laboratory Animal Co., LTD for study. An estrogen tablet ([…], sustained release within 60 days) was subcutaneously implanted in the left next abdomen of each mice. After 3 days, the tumor cells (10×10^6 in 0.2 mL of phosphate buffer) were subcutaneously implanted in the right next abdomen of each mice for the tumor growth. The administration started when the average tumor volume reached about 150-200 mm^3. The test compounds were orally administered daily, the doses were shown as Table 5. The tumor volumes were measured with a two-dimensional caliper every three days, the volumes were expressed in cubic millimeters and calculated by the formula V=0.5a×b^2, wherein a and b were the major diameter and minor diameter of the tumor, respectively. Antitumor efficacy was determined by dividing an average increase of the tumor volumes of the animals treated with the compounds by an increase of the tumor volumes of the untreated animals.

The subject of data set [5] is Caco-2 monolayer cells.
Description: as §5, §6
A short description of the next data set: in vitro. The following applies: human, Caco-2, pH 7.4.
Where [6] appears, read: 10 mg/kg oral, time point 0.5 h.
Where [7] appears, read: human, Caco-2, 2 h, 2 μM, pH 7.4.

Where two headings read alike, the source gives them in different places.

T3 sequence (P11802 whole entry): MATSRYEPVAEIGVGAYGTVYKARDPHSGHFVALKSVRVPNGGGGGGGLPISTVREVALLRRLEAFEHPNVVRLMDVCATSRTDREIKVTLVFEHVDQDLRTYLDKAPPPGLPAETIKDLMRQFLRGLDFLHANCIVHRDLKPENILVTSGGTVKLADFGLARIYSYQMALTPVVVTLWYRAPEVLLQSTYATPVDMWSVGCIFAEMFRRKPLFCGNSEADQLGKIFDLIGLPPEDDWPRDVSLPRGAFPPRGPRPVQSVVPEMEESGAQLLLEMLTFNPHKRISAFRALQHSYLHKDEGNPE
T3 sequence (P24385 whole entry partner): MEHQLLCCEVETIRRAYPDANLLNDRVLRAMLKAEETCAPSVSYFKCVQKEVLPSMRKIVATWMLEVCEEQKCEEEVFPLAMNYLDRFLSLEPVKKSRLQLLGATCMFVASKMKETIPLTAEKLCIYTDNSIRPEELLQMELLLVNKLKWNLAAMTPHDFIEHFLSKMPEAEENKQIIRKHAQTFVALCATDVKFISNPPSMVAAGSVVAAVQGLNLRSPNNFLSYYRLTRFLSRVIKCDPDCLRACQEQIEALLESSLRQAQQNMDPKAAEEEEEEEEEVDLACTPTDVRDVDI
T1 sequence (Q00534 whole entry): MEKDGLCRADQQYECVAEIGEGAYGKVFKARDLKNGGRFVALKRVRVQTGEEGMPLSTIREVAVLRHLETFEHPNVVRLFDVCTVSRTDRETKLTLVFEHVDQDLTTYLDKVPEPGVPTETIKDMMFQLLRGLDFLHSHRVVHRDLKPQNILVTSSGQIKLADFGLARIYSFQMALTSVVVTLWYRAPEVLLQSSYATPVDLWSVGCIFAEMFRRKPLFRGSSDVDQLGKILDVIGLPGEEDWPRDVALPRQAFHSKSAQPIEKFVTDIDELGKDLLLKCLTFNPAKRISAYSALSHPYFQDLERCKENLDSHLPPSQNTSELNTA
T1 sequence (P24385 whole entry partner): as the sequence (P24385 whole entry partner) above
Description for in vitro: as §5, §6

As for `CC(C)c1c2cc(-c3nc(Nc4ccc(N5CCN(CCC#N)CC5)cn4)ncc3F)ccc2nn1C` [Example 7, 3-[4-[6-[[5-fluoro-4-(3-isopropyl-2-methyl-2H-indazol-5-yl)pyrimidin-2-yl]amino]-3-pyridyl]piperazin-1-yl]propanenitrile], the IC50 on CDK6/cyclin D1 was 4.52 nM; against CDK2/cyclin A it was 12 nM; in the data set with MDA-MB-436 cells, 1160 nM; in the data set on MCF-7 cells, 37.2 nM; at CDK4/cyclin D1, 1.82 nM. The “exposure in brain after 8 hours” value in data set [1] (10 mg/kg oral, in words) is given as “significantly decreased”. Moreover, the Exposure in brain was 1564 nmol/kg in data set [1] (setting [6]); 2922 nmol/kg in data set [1] (10 mg/kg oral, time point 2 h); 307 nmol/kg in [1] (10 mg/kg oral, time point 8 h). The “exposure in brain tissue compared with the reference compounds” value in data set [1] (rat, versus Palbociclib and LY2835219, in words, b797: 0.5 hour and 2 hour) is reported as “higher exposure”. For the same molecule, in the data set on MCF-7 cells, the MCF-7/MDA-MB-436 is 31.1. The “selectivity in inhibiting the proliferation of estrogen receptor positive breast cancer cells (MCF-7/MDA-MB-436)” value in the data set with MCF-7 cells (versus LY2835219, in words) was “higher selectivity”. In addition, in the data set with MCF-7 cells (versus Palbociclib and LY2835219, in words), the “inhibitory activities against the proliferation of MCF-7 cells compared with the reference compounds” value was “higher inhibitory activities”. Besides, the apparent permeability from apical to basolateral (Papp A→B) at 2 h, 2 μM in data set [2] amounted to 6.55 ×10⁻⁶ cm/s. Further, in data set [2], the Papp B→A at 2 h, 2 μM came out at 3.38 ×10⁻⁶ cm/s. In data set [2], the efflux ratio at 2 h, 2 μM came out at 0.52. The “Classification Permeability” value in the data set on Caco-2 monolayer cells [3] (Caco-2) is reported as “High”. Besides, the “Classification Substrates of efflux transporters” value in the data set on Caco-2 monolayer cells [3] (Caco-2) is “Unlikely”. Besides, the “permeability compared with the reference compounds” value in the data set with Caco-2 monolayer cells [3] (Caco-2, versus Palbociclib and LY2835219, in words) is “higher permeability”. The Tomor volumes in data set [4] (50.0 mg/kg orally daily, 0 day) was 187 mm^3; in [4] (50.0 mg/kg orally daily, 7th day) it was 271 mm^3; in data set [4] (50.0 mg/kg orally daily, 14th day) it was 318 mm^3; in data set [4] (50.0 mg/kg orally daily, 21st day), 350 mm^3. In addition, in [4] (in words), the “antitumor activities in the CDX model of MCF-7 breast cancer” value was “significant antitumor activities”.
For `CC(=O)c1c(C)c2cnc(Nc3ccc(N4CCNCC4)cn3)nc2n(C2CCCC2)c1=O` [Palbociclib, reference compound], the Exposure in brain in data set [1] (setting [6]) amounted to 80 nmol/kg; in data set [1] (10 mg/kg oral, time point 2 h), 329 nmol/kg; in data set [1] (10 mg/kg oral, time point 8 h) it was 184 nmol/kg. Also, the “Classification Permeability” value with Caco-2 monolayer cells [5] (Caco-2) is recorded as “Medium”. Further, the “Average apparent permeability coefficient A to B” value with Caco-2 monolayer cells [5] (setting [7]) is on record as 9.18 10^−6 cm/s. Moreover, in the data set with Caco-2 monolayer cells [5] (setting [7]), the “Average apparent permeability coefficient B to A” value is given as 7.51 10^−6 cm/s. The IC50 in the data set on MDA-MB-436 cells worked out at 9840 nM; in the data set on MCF-7 cells, 87 nM. For the same molecule, the MCF-7/MDA-MB-436 with MCF-7 cells is given as 113. The molecule also showed a Papp A→B at 2 h, 2 μM in “in vitro” of 0.85 ×10⁻⁶ cm/s. For the same molecule, the Papp B→A at 2 h, 2 μM in the data set “in vitro” worked out at 16.5 ×10⁻⁶ cm/s. Also, the Tomor volumes in data set [4] (45.0 mg/kg orally daily, 0 day) was found to be 187 mm^3; in data set [4] (45.0 mg/kg orally daily, 7th day), 264 mm^3; in data set [4] (45.0 mg/kg orally daily, 14th day), 387 mm^3; in data set [4] (45.0 mg/kg orally daily, 21st day), 633 mm^3. The “tolerability of high doses in the animals” value in data set [4] (mouse, in vivo) is reported as “intolerable”.

Broadly, the IC50 is the concentration that inhibits the measured activity by half. What is called Papp A→B is the apparent permeability from the apical to the basolateral side of a cell layer. Broadly, the Papp B→A is how fast a substance crosses the layer from the basolateral side. For orientation: efflux ratio means a quotient of directional permeabilities that is used to spot active efflux.

(Values after patent US9969719B2, “Substituted 2-hydrogen-pyrazole derivative serving as anticancer drug” (CHIA TAI TIANQING PHARMACEUTICAL GROUP CO., LTD., priority 2015, dated 2018).)
